Legend:
[1] = tested on: erectile responses (intracavernosal pressure) to cavernosal nerve stimulation; experiment: Erectile responses to cavernosal nerve stimulation in anesthetized rats; type: in vivo, rat; settings: intravenous 10 mg/kg, stimulation 60 min after administration
Protocol: Male Sprague-Dawley rats were anesthetized with ketamine (60 mg/kg). The surgical procedure consisted of dissection and isolation of the right cavernous nerve through an abdominal midline incision and exposure of penile crura through a transverse perineal incision. Intracavemosal pressure (ICP) measurements were accomplished by insertion into the right crus of a 23-gauge needle connected to a disposable pressure transducer (Abbott, Sligo, Ireland) and a data acquisition system (ADInstruments, Castle Hill, Australia). Left carotid artery and right external jugular vein were catheterized for constant blood pressure measurement and saline or drug infusion, respectively. Electrical stimulation was applied by a delicate platinum bipolar hook electrode connected to a stimulator and current amplifier (Cibertec, Madrid, Spain). Parameters of electrical stimulation consisted of pulses with a duration of 1 ms and 1.5 mA of current intensity for 1 minute. […]
Relaxation responses are expressed as percentage of total relaxation (loss in tone) induced by the addition of 0.1 mM papaverine HCl to the chambers at the end of the experiment. All data are expressed as mean±standard error. […] Erectile responses were determined by measuring the area under the curve (AUC) of the intracavemosal pressure increases to rat cavernosal nerve stimulation normalized by mean arterial pressure values. […]

[2] = tested on: human penile resistance arteries (HPRA); experiment: Vascular reactivity of resistance penile arteries (myograph, isometric tension)
Protocol: Penile small arteries, helicine arteries (lumen diameter 150-400 μm), which are the terminal branches of deep penile arteries, were dissected by carefully removing the adhering trabecular tissue, and arterial ring segments (of 2 mm length) were subsequently mounted on two 40 μm wires on microvascular double Halpern-Mulvany myographs (J.P. Trading, Aarhus, Denmark) for isometric tension recordings. The vascular segments were allowed to equilibrate for 30 min in physiological salt solution (PSS) of the following composition (each given in mM): 119 NaCl, 4.6 KCl; 1.5 CaCl2, 1.2 MgCl2, 24.9 NaHCO3, 11 Glucose, 1,2 KH2PO4, 0.027 EDTA in water at 37° C., continuously bubbled with a 95% O2/5% CO2 mixture to maintain a pH of 7.4. Passive tension and internal circumference of the vascular segments when relaxed in situ under a transmural pressure of […] (L100) were determined. The vascular segments were then set to an internal circumference eqivalent to 90% of L100, at which the force development was dose to maximal as described in Mulvany M J, Halpem W., “Contractile properties of small resistance arteries in spontaneously hypertensive and normotensive rats”, Circ. Res., 41, 19-26, 1977. The respective literature description is incorporated by reference and is part of the disclosure. The preparations were then exposed to 125 mM K^+ (KPSS, equimolar substitution of NaCl for KCl in PSS) and the contractile response was measured. The arteries were contracted with 1 μm norepinephrine (approximately 80% of KPSS induced contraction) and relaxation responses were evaluated by cumulative additions of compounds to the chambers.
Relaxation responses are expressed as percentage of total relaxation (loss in tone) induced by the addition of 0.1 mM papaverine HCl to the chambers at the end of the experiment. All data are expressed as mean±standard error. Complete concentration-response or frequency-response curves were obtained and compared by a two-factor analysis of variance (ANOVA) statistical test using StatView sotfware for Apple computers. Erectile responses were determined by measuring the area under the curve (AUC) of the intracavemosal pressure increases to rat cavernosal nerve stimulation normalized by mean arterial pressure values. The complete frequency-response curves were compared by a two-factor ANOVA test.

O=S(=O)(O)c1cc(O)ccc1O [calcium dobesilate, calcium dihydroxy-2,5 benzenesulfonate]
erectile responses to cavernosal nerve stimulation [1]: significantly enhanced the erectile responses
effect on ACh-induced relaxation of HPRA ([2]; calcium dobesilate 10 μM): markedly potentiated
potentiation of ACh-induced relaxation of HPRA under combined inhibition of NOS and COX ([2]; calcium dobesilate 10 μM, combined inhibition of NOS and COX): not significantly affected
potentiation of ACh-induced relaxation of HPRA at high potassium concentration ([2]; calcium dobesilate 10 μM, high potassium concentration (35 mM)): abolished
potentiating effects on ACh-induced relaxation of HPRA with APA and CTX ([2]; combination of APA (100 nM) and CTX (100 nM)): abolished the potentiating effects
potentiating effects on ACh-induced relaxation of HPRA resistant to NOS and COX inhibition, with miconazole ([2]; miconazole (0.3 mM)): significantly reduced the potentiating effects
